Tests used:
cytochrome C (Cyt C) = assay: Western blotting analysis of cytochrome C; format: cell-based, rat; conditions: CTX-TNA2 challenged with H2O2, 24 h; 1000 nM CBD, 1 nM CBG
Procedure: […] The stock solutions were diluted in cell medium to the point that the concentration of DMSO in the samples was less than 0.0003%. Therefore, the addition of DMSO to the control samples was not necessary.
The western blowing analysis of Bax and Cyt C was carried out as previously reported. Specifically, CTX-TNA2 lysates (20 µg) were boiled fof 5 min in sample buffer, made of tris-HCl pH 6.8, glycerol, 2-mercaptoethanol, SDS and bromophenol blue. They were then electrophoresed and transferred to nitrocellulose membranes. […] Immunoreactive bands were identified using the ECL detection system (Euroclone, Pero, Milano, Italy) and analyzed by densitometry. Densitometric values were quantified by the CHEMIDOC XRS system and expressed as Integrated Optical Intensity using the QuantiOne 1-D analysis software (Bio-rad Laboratories, Richmond, CA, USA). […] Results are expressed as the mean ± SD.

[1] = test system: isolated rat cortexes, kynurenic acid (KA); assay: K+ 60 mM neurotoxicity paradigm, kynurenic acid level; conditions: for effect on K+ 60 mM-induced reduction in kynurenic acid (KA) level: CBD 1000 nM, CBG 1 nM
Procedure: (§1) Sprague–Dawley rats (200–250 g) were sacrificed by CO2 inhalation (Italian Health Ministry authorization N. F4738.N.XTQ, delivered on 11th November 2018) and isolated prefrontal cortex specimens were immediately explanted and incubated in thermostatic shaking bath at 37 °C for 1 h (incubation period), in Krebs–Ringer buffer at the following K^+ concentrations:
Cortexes were stimulated with CBD (1000 nM) and […]. Afterwards, specimens were homogenized in perchloric acid solution (0.05 M) for the extraction and quantification of nitrites, via the aforementioned colorimetric Griess assay, and serotonin (5-HT), 5-hydroxyindoleacetic (5HIIA),3-hydroxykinurenine (3-HK) and kinurenic acid (KA) (ng/mg wet tissue) via high performance liquid chromatography analysis. Additionally, an untargeted proteomic analysis was carried out on the cortex homogenate. The analytical protocols for 5-HT, 5HIIA, 3-HK, KA and protein level determinations are described below. The analyses were conducted in triplicate and in independent facilities with blind modality.
The KA quantitative determination was performed by using a liquid chromatograph (MOD. 1525, Waters Corporation, Milford MA, USA) equipped with a fluorimetric detector (MOD. 2475, Waters Corporation), a C18 reversed-phase column (AcclaimTM 120, 3 µm, 2.1 × 100 mm, Dionex Corporation, Sunnyvale, CA, USA), and an online degasser (Biotech 4-CH degasi compact, LabService, Anzola Emilia, Italy). The separation was conducted in isocratic conditions and the mobile phase consisted of 250 mM zinc acetate, 50 mM sodium acetate, and 3% acetonitrile (pH adjusted to 6.2 with glacial acetic acid), using a flow rate of 1.0 mL/min. In the eluate, the KA was identified and measured fluorimetrically (excitation: 344 nm; emission: 398 nm).

[2] = test system: isolated rat cortexes, 5HIIA/5-HT ratio; assay: K+ 60 mM neurotoxicity paradigm, 5-HT turnover; conditions: CBD 1000 nM, CBG 1 nM
Procedure: as §1
Cortexes were stimulated with CBD (1000 nM) and CBD (1 nM). Afterwards, specimens were homogenized in perchloric acid solution (0.05 M) for the extraction and quantification of nitrites, via the aforementioned colorimetric Griess assay, and serotonin (5-HT), 5-hydroxyindoleacetic (5HIIA),3-hydroxykinurenine (3-HK) and kinurenic acid (KA) (ng/mg wet tissue) via high performance liquid chromatography analysis. […]
Tissue 3-HK, 5-HT and 5HIIA levels were analyzed through an HPLC apparatus consisting of a Jasco (Tokyo, Japan) PU-2080 chromatographic pump and an ESA (Chelmsford, MA, USA) Coulochem III coulometric detector, equipped with a microdialysis cell (ESA-5014b), a porous graphite working electrode and a solid state palladium reference electrode. The analytical conditions for identification and quantification were selected according to previous studies. […] The chromatograms were monitored at the analytical detector 2. […] Sample concentrations were calculated by linear regression curve (y = bx + m) obtained with standard. […]

Compound	Cyt C expression (cytochrome C (Cyt C))	effect on K+ 60 mM-induced reduction in kynurenic acid (KA) level [1]	effect on K+ 60 mM-induced increase in 5-HT turnover (5HIIA/5-HT ratio) [2]	KA level ([1]; basal conditions only)
C=C(C)[C@@H]1CCC(C)=C[C@H]1c1c(O)cc(CCCCC)cc1O [CBD, Cannabidiol]	decrease the Cyt C levels in comparison to H2O2 sample	successful in blunting	able to prevent the 5-HT depletion	
CCCCCc1cc(O)c(C/C=C(\C)CCC=C(C)C)c(O)c1 [CBG, cannabigerol]	effect on Bax only	completely ineffective	able to prevent the 5-HT depletion	increase KA levels
